The values that follow come from patent US5416222A, “3-pyrrolidine methanamines wherein the alpha-carbon is substituted by 1 or 2 lower alkyl groups which are intermediates for pyridone-carboxylic acid derivatives” (Daiichi Seiyaku Co., Ltd., priority 1985, dated 1995).

Holding throughout (experiment): antimicrobial activity, MIC, standard process of Japan Society of Chemotherapy
Holding throughout (format): cell-based

The test system of experiment [1] is S. aureus, 209P. The conditions noted are these: for MIC: Staphylococcus aureus, read-out: minimum growth inhibitory concentration (MIC). Here is the method:
(§1) The antimicrobial activities of the compounds of the present invention were determined according to a standard process designated by the Japan Society of Chemotherapy and the minimum growth inhibitory concentrations (MIC) (μg/ml) the compounds were determined.

The test system of experiment [2] is S. epidermidis, 56500. To be noted: for minimum growth inhibitory concentration (MIC): S. epidermidis; for MIC: Staphylococcus epidermidis, 56500, S. epidermidis, read-out: minimum growth inhibitory concentration (MIC). Here is the method: as §1
In experiment [3] the test system is Str. faecalis, ATCC 19433. The conditions noted are these: for minimum growth inhibitory concentration (MIC): Str. faecalis; for MIC: Enterococcus faecalis, ATCC19433, Str. faecalis, read-out: minimum growth inhibitory concentration (MIC). Here is the method: as §1
Experiment [4] deals with Ps. aeruginosa, 2063. The conditions noted are these: for minimum growth inhibitory concentration (MIC): Ps. aeruginosa; for MIC: Pseudomonas aeruginosa, 2063, Ps. aeruginosa, read-out: minimum growth inhibitory concentration (MIC). Here is the method: as §1
Experiment [5] has as its system Ser. marcescens, 13001. The conditions noted are these: for minimum growth inhibitory concentration (MIC): Ser. marcescens; for MIC: Serratia marcescens, 13001, Ser. marcescens, read-out: minimum growth inhibitory concentration (MIC). The procedure: as §1
For experiment [6], the system named is Pr. mirabilis, IF03849. To be noted: for minimum growth inhibitory concentration (MIC): Pr. mirabilis; for MIC: Proteus mirabilis, IF03849, Pr. mirabilis, read-out: minimum growth inhibitory concentration (MIC). The procedure:
as §1

The subject of experiment [7] is Ps. cepacia, IID1340. To be noted: for minimum growth inhibitory concentration (MIC): Ps. cepacia; for MIC: Burkholderia cepacia, IID1340, Ps. cepacia, read-out: minimum growth inhibitory concentration (MIC). The procedure:
as §1

Experiment [8] has as its system Pr. vulgaris, 3167. To be noted: for minimum growth inhibitory concentration (MIC): Pr. vulgaris; for MIC: Proteus vulgaris, 3167, Pr. vulgaris, read-out: minimum growth inhibitory concentration (MIC). The procedure: as §1
Experiment [9] relates to Ps. aeruginosa, 2128. The conditions noted are these: for minimum growth inhibitory concentration (MIC): Ps. aeruginosa; for MIC: Pseudomonas aeruginosa, 2128, Ps. aeruginosa, read-out: minimum growth inhibitory concentration (MIC). The procedure: as §1
In experiment [10] the test system is E. coli, NIHJ. To be noted: for MIC: Escherichia coli, read-out: minimum growth inhibitory concentration (MIC). Here is the method:
as §1

For experiment [11], the system named is Ps. maltophilia, IID1275. To be noted: for MIC: Stenotrophomonas maltophilia, IID1275, Ps. maltophilia, read-out: minimum growth inhibitory concentration (MIC). Here is the method: as §1
For experiment [12], the system named is Str. pyogenes, G-36. The conditions noted are these: for minimum growth inhibitory concentration (MIC): Str. pyogenes; for MIC: Streptococcus pyogenes, G36, Str. pyogenes, read-out: minimum growth inhibitory concentration (MIC). Here is the method:
as §1

Experiment [13] relates to Sh. flexneri, 2a5503. To be noted: for MIC: Shigella flexneri, read-out: minimum growth inhibitory concentration (MIC). The procedure: as §1

In brackets after ≈: the same amount, converted by molar mass.

Consider “1-Cyclopropyl-6,8-difluoro-1,4-dihydro-7-[3-(2S)-pyrrolidinyl)-1-pyrrolidinyl)-1-pyrrolidinyl]-4-oxoquinoline-3-carboxylic acid [Example 17]”, for which the “minimum growth inhibitory concentration (MIC)” value in [1] was no more than 0.05 µg/mL; in experiment [2], 0.10 µg/mL; in experiment [3], 0.10 µg/mL; in experiment [4], 0.39 µg/mL; in experiment [5] it was 0.10 µg/mL; in experiment [6], 0.20 µg/mL. Further, the “minimum growth inhibitory concentration (MIC)” value in experiment [7] was 0.78 µg/mL; in experiment [8], 0.10 µg/mL; in [9] it was 0.20 µg/mL; in experiment [10], no more than 0.05 µg/mL; in [11] (Ps. maltophilia), 0.39 µg/mL; in experiment [12] it was 0.10 µg/mL. Besides, the “minimum growth inhibitory concentration (MIC)” value in experiment [13] was no more than 0.05 µg/mL.
For the compound `CC(N)C1CCN(c2c(F)cc3c(=O)c(C(=O)O)cn(C4CC4)c3c2F)C1` (single isomer, unassigned) [Example 1, 7-[3-(1-Aminoethyl)-1-pyrrolidinyl]-1-cyclopropyl-6,8-difluoro-1,4-dihydro-4-oxoquinoline-3-carboxylic acid], the MIC in experiment [1] was 0.1 µg/mL (≈ 0.265 µM); in experiment [2], 0.1 µg/mL (≈ 0.265 µM); in experiment [3], 0.1 µg/mL (≈ 0.265 µM); in [6], 0.1 µg/mL (≈ 0.265 µM); in [7] it was 0.78 µg/mL (≈ 2.07 µM); in experiment [8], 0.1 µg/mL (≈ 0.265 µM). In addition, the MIC is no more than 0.05 µg/mL in experiment [10], 0.2 µg/mL (≈ 0.53 µM) in experiment [11], 0.1 µg/mL (≈ 0.265 µM) in [12] and no more than 0.05 µg/mL in [13]. Further, the “minimum growth inhibitory concentration (MIC)” value amounted to 0.78 µg/mL in experiment [4], 0.20 µg/mL in experiment [5] and 0.20 µg/mL in experiment [9].
In the case of `CCn1cc(C(=O)O)c(=O)c2cc(F)c(N3CCC(C(C)N)C3)c(F)c21` (single isomer, unassigned) [Example 3, 7-[3-(1-Aminoethyl)-1-pyrrolidinyl]-1-ethyl-6,8-difluoro-1,4-dihydro-4-oxoquinoline-3-carboxylic acid], the MIC in experiment [1] is no more than 0.05 µg/mL; in experiment [4], 0.39 µg/mL (≈ 1.07 µM); in experiment [5] it was 0.2 µg/mL (≈ 0.547 µM); in experiment [6] it was 0.2 µg/mL (≈ 0.547 µM); in experiment [7] it was 1.56 µg/mL (≈ 4.27 µM); in experiment [9], 0.2 µg/mL (≈ 0.547 µM). The MIC in experiment [10] is no more than 0.05 µg/mL; in experiment [11] it was 0.78 µg/mL (≈ 2.13 µM); in experiment [13] it was no more than 0.05 µg/mL. The “minimum growth inhibitory concentration (MIC)” value worked out at 0.20 µg/mL in [2], 0.39 µg/mL in experiment [3], 0.20 µg/mL in experiment [8] and 0.39 µg/mL in experiment [12].
Consider `CNC(C)C1CCN(c2c(F)cc3c(=O)c(C(=O)O)cn(C4CC4)c3c2F)C1` (single isomer, unassigned) [Example 6, 1-Cyclopropyl-6,8-difluoro-1,4-dihydro-7-[3-(1-methylaminoethyl)-1-pyrrolidinyl]-4-oxoquinoline-3-carboxylic acid], for which the MIC in experiment [1] is no more than 0.05 µg/mL; in experiment [2] it was 0.1 µg/mL (≈ 0.255 µM); in [4], 0.39 µg/mL (≈ 0.996 µM); in [5], 0.2 µg/mL (≈ 0.511 µM); in [7], 0.78 µg/mL (≈ 1.99 µM); in [8] it was 0.1 µg/mL (≈ 0.255 µM). The MIC in experiment [9] was 0.2 µg/mL (≈ 0.511 µM); in experiment [10], no more than 0.05 µg/mL; in experiment [11] it was 0.2 µg/mL (≈ 0.511 µM); in experiment [13], no more than 0.05 µg/mL. The “minimum growth inhibitory concentration (MIC)” value in experiment [3], in [6] and in [12] was 0.20 µg/mL in each case.
With `CCC(N)C1CCN(c2c(F)cc3c(=O)c(C(=O)O)cn(CC)c3c2F)C1` (single isomer, unassigned) [Example 20, 1-ethyl-6,8-difluoro-7-[3-(1-aminopropyl)-1-pyrrolidinyl]-1,4-dihydro-4-oxoquinoline-3-carboxylic acid], the MIC was no more than 0.05 µg/mL in experiment [1]; no more than 0.05 µg/mL in [2]; no more than 0.05 µg/mL in experiment [3]; 0.39 µg/mL (≈ 1.03 µM) in [4]; 0.1 µg/mL (≈ 0.264 µM) in [5]; 0.1 µg/mL (≈ 0.264 µM) in experiment [6]. The MIC is 0.39 µg/mL (≈ 1.03 µM) in experiment [7]; no more than 0.05 µg/mL in experiment [8]; 0.2 µg/mL (≈ 0.527 µM) in experiment [9]; no more than 0.05 µg/mL in experiment [10]; 0.2 µg/mL (≈ 0.527 µM) in experiment [11]; no more than 0.05 µg/mL in [12]. The MIC in experiment [13] is no more than 0.05 µg/mL.
Turning to `CCC(N)C1CCN(c2c(F)cc3c(=O)c(C(=O)O)cn(C4CC4)c3c2F)C1` (single isomer, unassigned) [Example 21, 1-Cyclopropyl-6,8-difluoro-7-[3-(1aminopropyl)-1-pyrrolidinyl]-1,4-dihydro-4-oxoquinoline-3-carboxylic acid], the MIC in experiment [1] is no more than 0.05 µg/mL; in experiment [2], no more than 0.05 µg/mL; in [3], no more than 0.05 µg/mL; in [4], 0.2 µg/mL (≈ 0.511 µM); in [5], no more than 0.05 µg/mL; in [6] it was 0.1 µg/mL (≈ 0.255 µM). Further, the MIC in experiment [7] was 0.2 µg/mL (≈ 0.511 µM); in experiment [8] it was no more than 0.05 µg/mL; in experiment [9], 0.1 µg/mL (≈ 0.255 µM); in experiment [10] it was no more than 0.05 µg/mL; in experiment [11], no more than 0.05 µg/mL; in [12] it was no more than 0.05 µg/mL. Moreover, in experiment [13], the MIC is no more than 0.05 µg/mL.
As to `CC(N)C1CCN(c2nc3c(cc2F)c(=O)c(C(=O)O)cn3C2CC2)C1` (centres unmarked) [Example 5, 7-[3-(1-Aminoethyl)-1-pyrrolidinyl]-1-cyclopropyl-6-fluoro-1,4-dihydro-4-oxo-1,8-naphthyridine-3-carboxylic acid], the MIC in experiment [1] is no more than 0.05 µg/mL; in experiment [2], no more than 0.05 µg/mL; in experiment [3], 0.2 µg/mL (≈ 0.555 µM); in experiment [8], 0.05 µg/mL (≈ 0.139 µM); in [10], no more than 0.05 µg/mL; in [11], 0.39 µg/mL (≈ 1.08 µM). In addition, the values for the MIC in [12] and in experiment [13] were 0.39 µg/mL (≈ 1.08 µM) and no more than 0.05 µg/mL, respectively. For the same compound, the “minimum growth inhibitory concentration (MIC)” value in [4] is 0.78 µg/mL; in [5], 0.20 µg/mL; in experiment [6], 0.39 µg/mL; in experiment [7] it was 1.56 µg/mL; in experiment [9], 6.20 µg/mL.
With `CNC(C)C1CCN(c2nc3c(cc2F)c(=O)c(C(=O)O)cn3C2CC2)C1` (centres unmarked) [Example 8], the MIC in [1] is 0.1 µg/mL (≈ 0.267 µM); in experiment [2], 0.2 µg/mL (≈ 0.534 µM); in experiment [3], 0.39 µg/mL (≈ 1.04 µM); in experiment [4], 1.56 µg/mL (≈ 4.17 µM); in [5] it was 0.39 µg/mL (≈ 1.04 µM); in [6], 0.39 µg/mL (≈ 1.04 µM). In addition, the MIC in [7] is 1.56 µg/mL (≈ 4.17 µM); in [8], 0.1 µg/mL (≈ 0.267 µM); in [9], 0.39 µg/mL (≈ 1.04 µM); in experiment [10], no more than 0.05 µg/mL; in experiment [11], 0.78 µg/mL (≈ 2.08 µM); in experiment [12], 0.78 µg/mL (≈ 2.08 µM). Also, the MIC in experiment [13] was no more than 0.05 µg/mL.
